As usually defined, the melting point is the temperature of the solid-liquid transition.

One series concerns Candida albicans. As to the kind of experiment: Antimicrobial screening, agar dilution method. As to conditions: after 10, 20, 40 and 60 minutes at all dilutions 1:100, 1:200, 1:400, 1:800. The format is cell-based. On the procedure: (§1) The antibacterial properties of the synthesized compound 2-ethoxy-8-(4-fluorobenzylidene)-4-(4-fluorophenyl)-5,6,7,8-tetrahydroquinoline-3-carbonitrile were studied by the method of agar dilution. Test solutions of each compound was prepared in concentration of 1% using dimethylformamide as a solvent then they are diluted in physiological solution to obtain the final experimental dilutions 1:100, 1:200, 1:400, 1:800. The effects of these substances are compared with furacillin in a controllable study. The testing microbes used were gram positive bacteria Staphylococcus aureus, gram negative bacteria Pseudomonas aeruginosa and Escherichia coli and Candida albicans fungus. The experiments used for this survey were meat-pentonlu agar (EPA) for cultivation of bacteria and Saburo environment for the fungus. Each experiment used 1 mL of test solution on each plate […]. Two drops of emulsified with microbes feel were added. All experimental samples were taken from the agar after 10, 20, 40, 60 minutes in the environment on the basis of Patrk planted. The bacteria were cultivated at a temperature of 37° C. for 1 day and the mushroom was kept in a thermostat for […] at a temperature of 28° C. Then results were checked.
For orientation: In agar dilution the substance is mixed into plates at graded concentrations.

The next series concerns Escherichia coli. As to the kind of experiment: Antimicrobial screening, agar dilution method. In kind it is cell-based. As to conditions: after 10, 20, 40 and 60 minutes at all dilutions 1:100, 1:200, 1:400, 1:800. On the procedure: as §1
In another series the test system is Pseudomonas aeruginosa. As to the kind of experiment: Antimicrobial screening, agar dilution method. The format is cell-based. As to conditions: after 10, 20, 40 and 60 minutes at all dilutions 1:100, 1:200, 1:400, 1:800. As for the experimental part: as §1
For a further series, the system named is Staphylococcus aureus. As to the kind of experiment: Antimicrobial screening, agar dilution method. In kind it is cell-based. As to conditions: after 10, 20, 40 and 60 minutes at all dilutions 1:100, 1:200, 1:400, 1:800. As for the experimental part:
as §1

For the compound `CCOc1nc2c(c(-c3ccc(F)cc3)c1C#N)CCC/C2=C\c1ccc(F)cc1` [2-ethoxy-8-(4-fluorobenzylidene)-4-(4-fluorophenyl)-5,6,7,8-tetrahydroquinoline-3-carbonitrile], the melting point is 151 to 153 °C. Also, in the series with Candida albicans, the inhibition activity entry is “highest inhibition activity”. In the series on Escherichia coli, the inhibition activity result is given as “highest inhibition activity”. Also, the inhibition activity result in the series on Pseudomonas aeruginosa is “highest inhibition activity”. Further, the inhibition activity entry in the series on Staphylococcus aureus was “highest inhibition activity”.
